Results on 29 compounds are retold here after patent publication US20250134869A1, “Pyrrolo[2,3-d]pyrimidinyl, Pyrrolo[2,3-b]pyrazinyl and Pyrrolo[2,3-d]pyridinyl Acryla-mides” (Pfizer Inc, priority 2021, published 2025).

Molecules are shown by their SMILES. Like-named read-outs stand apart in the source and are kept apart here.

In the test the target is JAK3 enzyme (Homo sapiens (Human), UniProt P52333). Nature of the test: JAK Caliper Enzyme Assay at 4 μM or 1 mM ATP. In kind it is biochemical. The procedure:
JAK Caliper Enzyme Assay at […] or 1 mM ATP
Test article was solubilized in dimethyl sulfoxide (DMSO) to a stock concentration of 30 mM. An 11-point half log dilution series was created in DMSO with a top concentration of 600 μM. […] The compound plates were diluted 1 to 60 resulting in a top final assay compound concentration of 10 μM and a 2% DMSO concentration.
Test article and assay controls were added to a 384-well plate. Reaction mixtures contained 20 mM HEPES, pH 7.4, 10 mM magnesium chloride, 0.01% bovine serum albumin (BSA), 0.0005% Tween […] or 1 mM ATP and […] peptide substrate. […] The assays were initiated by the addition 1 nM JAK3 enzyme and were incubated at room temperature 75 minutes for JAK3. Enzyme concentrations and incubation times were optimized for each new enzyme preps and were modified slightly over time to ensure 20%-30% phosphorylation. The assays were stopped with a final concentration of 10 mM EDTA, 0.1% Coating Reagent and 100 mM HEPES, pH=7.4. The assay plates were placed on a Caliper Life Science Lab Chip 3000 (LC3000) instrument, and each well was sampled using appropriate separation conditions to measure the unphosphorylated and phosphorylated peptide.

Setting [1] is: read-out: JAK3 (4 μM ATP) IC50, 4 μM ATP.
The mark [2] stands for this setting: read-out: JAK3 (1 mM ATP) IC50, 1 mM ATP.

Sequence of JAK3 enzyme (P52333 whole entry, species assumed): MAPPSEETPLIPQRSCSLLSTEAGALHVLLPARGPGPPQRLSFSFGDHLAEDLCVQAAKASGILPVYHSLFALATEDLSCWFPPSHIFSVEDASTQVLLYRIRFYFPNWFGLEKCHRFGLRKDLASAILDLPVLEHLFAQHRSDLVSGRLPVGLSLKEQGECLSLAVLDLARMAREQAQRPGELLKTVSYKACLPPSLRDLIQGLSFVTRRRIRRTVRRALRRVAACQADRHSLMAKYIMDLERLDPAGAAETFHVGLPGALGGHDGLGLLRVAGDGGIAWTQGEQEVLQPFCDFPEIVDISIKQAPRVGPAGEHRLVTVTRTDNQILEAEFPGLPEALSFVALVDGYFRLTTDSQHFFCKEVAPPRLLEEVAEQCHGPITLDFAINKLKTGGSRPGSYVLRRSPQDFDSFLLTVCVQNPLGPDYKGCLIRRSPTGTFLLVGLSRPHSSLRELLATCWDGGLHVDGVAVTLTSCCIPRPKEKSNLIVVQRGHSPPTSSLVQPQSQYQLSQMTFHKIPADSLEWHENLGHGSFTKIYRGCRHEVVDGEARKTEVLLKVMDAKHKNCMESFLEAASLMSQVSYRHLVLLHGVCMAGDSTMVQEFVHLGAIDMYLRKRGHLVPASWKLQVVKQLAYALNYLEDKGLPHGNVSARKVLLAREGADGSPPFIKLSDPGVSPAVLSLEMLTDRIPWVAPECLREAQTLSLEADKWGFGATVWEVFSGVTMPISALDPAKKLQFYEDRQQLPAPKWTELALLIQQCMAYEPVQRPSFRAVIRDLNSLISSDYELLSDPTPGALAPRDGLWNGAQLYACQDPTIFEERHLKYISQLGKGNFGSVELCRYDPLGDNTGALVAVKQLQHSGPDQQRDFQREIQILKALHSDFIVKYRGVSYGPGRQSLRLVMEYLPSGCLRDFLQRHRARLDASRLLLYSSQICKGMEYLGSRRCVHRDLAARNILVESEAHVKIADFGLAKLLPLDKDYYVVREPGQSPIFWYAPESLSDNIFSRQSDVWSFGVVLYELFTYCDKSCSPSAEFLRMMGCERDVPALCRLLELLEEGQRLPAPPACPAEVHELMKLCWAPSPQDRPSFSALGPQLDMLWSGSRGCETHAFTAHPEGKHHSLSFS

For the compound `COC(=O)C/C=C/C(=O)N1CCC[C@@H](Nc2ncnc3[nH]ccc23)C1` [Example 97, methyl (3E)-5-oxo-5-[(3R)-3-(7H-pyrrolo[2,3-d]pyrimidin-4-ylamino)piperidin-1-yl]pent-3-enoate], the concentration for half-maximal inhibition (IC50) – broadly, the concentration that inhibits the measured activity by half – runs as follows: under setting [1], 904 nM; under setting [2], over 10000 nM.
For `C=CC(=O)N1CCC(Nc2cnc3[nH]cc(C(=O)NCCC(F)(F)F)c3n2)CC1` [Example 246, 2-[(1-acryloylpiperidin-4-yl)amino]-N-(3,3,3-trifluoropropyl)-5H-pyrrolo[2,3-b]pyrazine-7-carboxamide], in that order: 0.3 nM and 6.4 nM.
As to `C=CC(=O)N1CCN(c2cnc3[nH]cc(C(=O)NC(C)C)c3n2)C[C@H]1CC` [Example 311, 2-[(3R)-4-acryloyl-3-ethylpiperazin-1-yl]-N-(propan-2-yl)-5H-pyrrolo[2,3-b]pyrazine-7-carboxamide], the IC50 under setting [1] was 1.2 nM and the IC50 under setting [2] was 200 nM.
Turning to `C=C(C)C(=O)N1CCC[C@@H](Nc2ncnc3[nH]cc(CCOC)c23)C1` [Example 110, 1-[(3R)-3-{[5-(2-methoxyethyl)-7H-pyrrolo[2,3-d]pyrimidin-4-yl]amino}piperidin-1-yl]-2-methylprop-2-en-1-one], under setting [1], the IC50 amounted to 1430 nM.
As for `C=CC(=O)N1CCN(c2cnc3[nH]cc(C(=O)NC(C)C)c3n2)C(C)(C)C1` [Example 312, 2-(4-acryloyl-2,2-dimethylpiperazin-1-yl)-N-(propan-2-yl)-5H-pyrrolo[2,3-b]pyrazine-7-carboxamide], the IC50 came out at 4.5 nM under setting [1] and 592 nM under setting [2].
On to `C=CC(=O)N(C)C1CCN(c2cnc3[nH]cc(C(=O)NC(C)C)c3n2)CC1` [Example 169, 2-{4-[acryloyl(methyl)amino]piperidin-1-yl}-N-(propan-2-yl)-5H-pyrrolo[2,3-b]pyrazine-7-carboxamide], for which the concentration for half-maximal inhibition (IC50) under setting [1] stood at 42.8 nM and the IC50 under setting [2] stood at 4730 nM.
For `C=CC(=O)N1C[C@H](Nc2ncnc3[nH]ccc23)C[C@@H](N(C)C)C1` [Example 88, 1-[(3R,5R)-3-(Dimethylamino)-5-(7H-pyrrolo[2,3-d]pyrimidin-4-ylamino)piperidin-1-yl]prop-2-en-1-one], in that order: 18.2 nM and 3390 nM.
On to `C=CC(=O)N1CCC[C@@H](Nc2ncnc3[nH]cc(CC)c23)C1` [Example 44, 1-{(3R)-3-[(5-ethyl-7H-pyrrolo[2,3-d]pyrimidin-4-yl)amino]piperidin-1-yl}prop-2-en-1-one], for which the concentration for half-maximal inhibition (IC50) reads like this: under setting [1], 0.3 nM; under setting [2], 168 nM.
For `C=CC(=O)N1CC[C@H]2CCN(c3ncnc4[nH]cc(C(C)=O)c34)[C@H]2C1` [Example 111, 1-[(3aR,7aR)-1-(5-Acetyl-7H-pyrrolo[2,3-d]pyrimidin-4-yl)octahydro-6H-pyrrolo[2,3-c]pyridin-6-yl]prop-2-en-1-one], in that order: 39.2 nM and 4740 nM.
For `C=CC(=O)N1CCC(Nc2cnc3[nH]cc(C(=O)NC(C)(C)CC)c3n2)CC1` [Example 276, 2-[(1-acryloylpiperidin-4-yl)amino]-N-(2-methylbutan-2-yl)-5H-pyrrolo[2,3-b]pyrazine-7-carboxamide], in that order: under 0.3 nM and 11.1 nM.
In the case of `C=CC(=O)N1CCC[C@@H](Nc2ncnc3[nH]cc(C(=O)N(C)C)c23)C1` [Example 142, 4-{[(3R)-1-acryloylpiperidin-3-yl]amino}-N,N-dimethyl-7H-pyrrolo[2,3-d]pyrimidine-5-carboxamide], the concentration for half-maximal inhibition (IC50) under setting [1] stood at 225 nM.
Take `C=CC(=O)N1CCC(Nc2cnc3[nH]cc(C(=O)NC(C)C4CC4)c3n2)CC1` (stereo not drawn) [Example 288, 2-[(1-acryloylpiperidin-4-yl)amino]-N-(1-cyclopropylethyl)-5H-pyrrolo[2,3-b]pyrazine-7-carboxamide]: the 50% inhibitory concentration (IC50) came out at 0.2 nM under setting [1] and 7.8 nM under setting [2].
In the case of `C=CC(=O)N1CC[C@@H](F)[C@@H](Nc2ncnc3[nH]ccc23)C1` [Example 54, 1-((3S,4R)-3-((7H-Pyrrolo[2,3-d]pyrimidin-4-yl)amino)-4-fluoropiperidin-1-yl)prop-2-en-1-one], the IC50 by setting is: under setting [1], 1.7 nM; under setting [2], 192 nM.
`N#CC(C(=O)N1CCC[C@@H](Nc2ncnc3[nH]ccc23)C1)=C1CCOCC1` [Example 101, 3-oxo-3-[(3R)-3-(7H-pyrrolo[2,3-d]pyrimidin-4-ylamino)piperidin-1-yl]-2-(tetrahydro-4H-pyran-4-ylidene)propanenitrile]: the IC50 is 881 nM under setting [1] and over 10000 nM under setting [2].
Regarding `C=CC(=O)N1CC[C@@H]2CN(c3ncnc4[nH]ccc34)[C@@H]2C1` [Example 131, 1-[(1S,6R)-8-(7H-Pyrrolo[2,3-d]pyrimidin-4-yl)-3,8-diazabicyclo[4.2.0]oct-3-yl]prop-2-en-1-one], the IC50 under setting [1] came out at 988 nM.
On to `C=CC(=O)N1CCN(c2cnc3[nH]cc(C(=O)NC(C)C)c3n2)[C@H](C)C1` [Example 307, 2-[(2R)-4-acryloyl-2-methylpiperazin-1-yl]-N-(propan-2-yl)-5H-pyrrolo[2,3-b]pyrazine-7-carboxamide], for which the IC50 reads like this: under setting [1], 1.1 nM; under setting [2], 128 nM.
Regarding `C=CC(=O)N1CC[C@H](F)[C@@H](Nc2ncnc3[nH]ccc23)C1` [Example 4, 1-((3S,4S)-3-((7H-pyrrolo[2,3-d]pyrimidin-4-yl)amino)-4-fluoropiperidin-1-yl)prop-2-en-1-one], the 50% inhibitory concentration (IC50) worked out at 0.5 nM under setting [1] and 32.1 nM under setting [2].
For `C=CC(=O)N1CCC(Nc2cnc3[nH]cc(C(=O)NCCOC)c3n2)CC1` [Example 275, 2-[(1-acryloylpiperidin-4-yl)amino]-N-(2-methoxyethyl)-5H-pyrrolo[2,3-b]pyrazine-7-carboxamide], in that order: 0.4 nM and 13.1 nM.
For `C=CC(=O)N1C[C@H](C#N)C[C@@H](Nc2ncnc3[nH]ccc23)C1` [Example 6, (3R,5R)-5-((7H-pyrrolo[2,3-d]pyrimidin-4-yl)amino)-1-acryloylpiperidine-3-carbonitrile], in that order: 0.3 nM and 40 nM.
For `C=CC(=O)N1CCC[C@@H](Nc2ncnc3[nH]cc(CCOC)c23)C1` [Example 46, 1-[(3R)-3-{[5-(2-methoxyethyl)-7H-pyrrolo[2,3-d]pyrimidin-4-yl]amino}piperidin-1-yl]prop-2-en-1-one], in that order: 2.8 nM and 305 nM.
For the compound `C=CC(=O)N1C[C@@H](F)C[C@@H](Nc2ncnc3[nH]ccc23)C1` [Example 15, 1-((3R,5S)-3-((7H-Pyrrolo[2,3-d]pyrimidin-4-yl)amino)-5-fluoropiperidin-1-yl)prop-2-en-1-one], the 50% inhibitory concentration (IC50) runs as follows: under setting [1], 0.9 nM; under setting [2], 82.7 nM.
As for `C=CC(=O)N1CCC(Nc2cnc3[nH]cc(C(=O)N[C@@H](C(C)C)[C@H](O)C(F)(F)F)c3n2)CC1` [Example 252, 2-[(1-acryloylpiperidin-4-yl)amino]-N-[(2S,3S)-1,1,1-trifluoro-2-hydroxy-4-methylpentan-3-yl]-5H-pyrrolo[2,3-b]pyrazine-7-carboxamide], the IC50 stood at 0.5 nM under setting [1] and 37.2 nM under setting [2].
Regarding `C=CC(=O)N1CCC(Nc2cnc3[nH]cc(C(=O)NC4CCCC4(F)F)c3n2)CC1` (stereo not drawn) [Example 234, 2-[(1-acryloylpiperidin-4-yl)amino]-N-(2,2-difluorocyclopentyl)-5H-pyrrolo[2,3-b]pyrazine-7-carboxamide], the half-maximal inhibitory concentration (IC50) was under 0.3 nM under setting [1] and 4.9 nM under setting [2].
For `C#CCNC(=O)c1c[nH]c2ncc(NC3CCN(C(=O)C=C)CC3)nc12` [Example 343, 2-((1-Acryloylpiperidin-4-yl)amino)-N-(prop-2-yn-1-yl)-5H-pyrrolo[2,3-b]pyrazine-7-carboxamide], in that order: 0.1 nM and 3.4 nM.
For `C=CC(=O)N1CC(Nc2cnc3[nH]ccc3n2)C1` [Example 337, 1-(3-((5H-Pyrrolo[2,3-b]pyrazin-2-yl)amino)azetidin-1-yl)prop-2-en-1-one], in that order: 1.1 nM and 95.6 nM.
`C=CC(=O)NC[C@@]12C[C@@H]1CN(c1cnc3[nH]ccc3n1)C2` [Example 197, N-{[(1R,5S)-3-(5H-pyrrolo[2,3-b]pyrazin-2-yl)-3-azabicyclo[3.1.0]hex-1-yl]methyl}prop-2-enamide]: under setting [1], the half-maximal inhibitory concentration (IC50) is 3490 nM.
In the case of `C=CC(=O)N1CCC[C@@H](Nc2ncnc3[nH]ccc23)C1` [Example 12, (R)-1-(3-((7H-Pyrrolo[2,3-d]pyrimidin-4-yl)amino)piperidin-1-yl)prop-2-en-1-one], the half-inhibitory concentration (IC50) under setting [1] stood at 0.7 nM and the IC50 under setting [2] was determined as 56.8 nM.
On to `C=CC(=O)N1CCN(c2cnc3[nH]cc(C(=O)NC(C)C)c3n2)C2(CC2)C1` [Example 313, 2-(7-acryloyl-4,7-diazaspiro[2.5]oct-4-yl)-N-(propan-2-yl)-5H-pyrrolo[2,3-b]pyrazine-7-carboxamide], for which the 50% inhibitory concentration (IC50) runs as follows: under setting [1], 1.4 nM; under setting [2], 183 nM.
For `C=CC(=O)N1CC(Nc2cnc3[nH]cc(C(=O)NC(C)C)c3n2)C1` [Example 188, 2-[(1-acryloylazetidin-3-yl)amino]-N-(propan-2-yl)-5H-pyrrolo[2,3-b]pyrazine-7-carboxamide], in that order: 0.3 nM and 8.8 nM.
